The assay addresses human NaV 1.8 channels stably expressed in HEK 293 cells (Homo sapiens (Human), UniProt Q9Y5Y9). The assay can be described thus: Nav1.8 Qube automated patch-clamp assay. The assay is classed as cell-based. The conditions noted are these: human NaV1.8 in HEK 293 cells, whole-cell voltage clamp, room temperature; read-out: IC50 values (nM) for Examples in the Nav1.8 Qube Assay. The method in brief:
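Whole-cell voltage clamp at room temperature on HEK293 cells; from −90 mV, a 10 s 1 Hz train of 20 ms pulses to 10 mV (repolarising to −67 mV) was applied. Peak currents at pulses 1 and 10 gave resting- and inactivated-state inhibition; IC50 fitted by Hill equation. Internal CsF/CsCl buffer.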

What is called IC50 is the concentration at which inhibition is half-maximal.

human NaV 1.8 channels stably expressed in HEK 293 cells, sequence (Q9Y5Y9 whole entry): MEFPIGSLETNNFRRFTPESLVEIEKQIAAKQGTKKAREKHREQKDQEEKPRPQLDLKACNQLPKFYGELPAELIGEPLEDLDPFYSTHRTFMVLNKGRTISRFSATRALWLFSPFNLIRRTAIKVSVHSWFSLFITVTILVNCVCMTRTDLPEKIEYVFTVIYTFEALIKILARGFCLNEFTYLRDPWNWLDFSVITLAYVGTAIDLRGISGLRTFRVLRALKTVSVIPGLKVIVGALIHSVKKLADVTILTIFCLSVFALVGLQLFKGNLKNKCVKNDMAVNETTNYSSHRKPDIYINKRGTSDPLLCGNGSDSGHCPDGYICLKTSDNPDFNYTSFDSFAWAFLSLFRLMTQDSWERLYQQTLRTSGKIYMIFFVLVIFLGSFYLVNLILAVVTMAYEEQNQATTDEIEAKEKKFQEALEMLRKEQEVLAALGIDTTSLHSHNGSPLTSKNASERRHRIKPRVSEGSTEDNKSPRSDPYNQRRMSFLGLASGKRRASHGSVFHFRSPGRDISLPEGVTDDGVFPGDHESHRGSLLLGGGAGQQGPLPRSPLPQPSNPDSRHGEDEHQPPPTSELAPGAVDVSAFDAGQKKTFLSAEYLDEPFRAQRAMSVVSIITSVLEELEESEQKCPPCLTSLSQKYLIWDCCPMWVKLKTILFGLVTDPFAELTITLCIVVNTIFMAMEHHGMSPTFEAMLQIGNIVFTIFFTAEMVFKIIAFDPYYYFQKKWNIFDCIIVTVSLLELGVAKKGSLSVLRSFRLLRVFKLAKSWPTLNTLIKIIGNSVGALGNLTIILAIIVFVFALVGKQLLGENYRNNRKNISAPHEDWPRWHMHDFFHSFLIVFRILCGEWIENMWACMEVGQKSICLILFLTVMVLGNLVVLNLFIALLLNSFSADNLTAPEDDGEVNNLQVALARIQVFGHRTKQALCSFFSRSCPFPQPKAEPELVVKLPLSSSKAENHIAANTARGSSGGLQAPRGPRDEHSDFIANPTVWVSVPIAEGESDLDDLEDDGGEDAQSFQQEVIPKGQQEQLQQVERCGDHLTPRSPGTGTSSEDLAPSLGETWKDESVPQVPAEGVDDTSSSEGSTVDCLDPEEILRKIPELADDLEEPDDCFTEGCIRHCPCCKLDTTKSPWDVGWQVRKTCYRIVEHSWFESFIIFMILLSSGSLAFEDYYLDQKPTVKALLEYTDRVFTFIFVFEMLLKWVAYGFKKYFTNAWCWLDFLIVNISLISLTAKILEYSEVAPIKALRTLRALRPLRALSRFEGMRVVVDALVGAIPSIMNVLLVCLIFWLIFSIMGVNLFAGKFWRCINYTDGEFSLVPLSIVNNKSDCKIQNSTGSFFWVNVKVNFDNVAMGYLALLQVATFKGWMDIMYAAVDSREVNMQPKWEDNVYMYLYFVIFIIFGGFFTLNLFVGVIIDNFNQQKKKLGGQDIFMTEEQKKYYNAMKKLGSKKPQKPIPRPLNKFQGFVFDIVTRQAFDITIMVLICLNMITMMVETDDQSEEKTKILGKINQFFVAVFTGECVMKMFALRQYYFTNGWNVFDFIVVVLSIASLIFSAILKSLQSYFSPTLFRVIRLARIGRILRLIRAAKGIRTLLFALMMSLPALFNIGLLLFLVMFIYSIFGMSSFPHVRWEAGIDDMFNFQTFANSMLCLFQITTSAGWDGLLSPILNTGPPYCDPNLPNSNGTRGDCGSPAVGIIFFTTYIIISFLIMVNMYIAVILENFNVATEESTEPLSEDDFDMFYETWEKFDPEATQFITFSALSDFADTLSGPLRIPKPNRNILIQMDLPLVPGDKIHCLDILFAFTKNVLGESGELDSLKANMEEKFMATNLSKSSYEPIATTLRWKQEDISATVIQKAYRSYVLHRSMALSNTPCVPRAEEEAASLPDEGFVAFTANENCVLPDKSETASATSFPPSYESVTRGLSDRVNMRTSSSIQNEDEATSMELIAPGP

As to `C[C@@H]1C(=O)NCCN1C(=O)NC(c1ccc(OC(F)(F)F)cc1)c1cnc(C(F)(F)F)c(Cl)c1` (single isomer, unassigned) [Example 20A, (2R)-N-((R or S)-(5-chloro-6-(trifluoro-methyl)pyridin-3-yl)(4-(trifluoromethoxy)phenyl)methyl)-2-methyl-3-oxopiperazine-1-carboxamide], the IC50 stood at 4.01 nM.

Consider `C[C@@H]1C(=O)NCCN1C(=O)NC(c1cnc(C(F)(F)F)s1)c1ccc(F)c(Cl)c1F` (single isomer, unassigned) [Example 62A], for which the IC50 is 197 nM.

In the case of `C[C@@H]1C(=O)NCCN1C(=O)NC(c1ccc(OC(F)(F)F)c(F)c1)c1cnc(C(F)(F)F)c(Cl)c1` (single isomer, unassigned) [Example 21A, (2R)-N-((R or S)-(5-chloro-6-(trifluoro-methyl)pyridin-3-yl)(3-fluoro-4-(trifluoromethoxy)phenyl)methyl)-2-methyl-3-oxopiperazine-1-carboxamide], the concentration for half-maximal inhibition (IC50) came to 1.45 nM.

Consider `O=C1CN(C(=O)NC(c2ccc(Cl)c(F)c2)c2ccc(F)c(C(F)(F)F)n2)CCN1` (single isomer, unassigned) [Example 54A, N-((R or S)-(4-chloro-3-fluorophenyl)(5-fluoro-6-(trifluoromethyl)pyridin-2-yl)methyl)-3-oxopiperazine-1-carboxamide], for which the IC50 came out at 285 nM.

As to `C[C@@H]1C(=O)NCCN1C(=O)NC(c1ccc(OC(F)(F)F)c(Cl)c1)c1cnc(C(F)(F)F)c(Cl)c1` (single isomer, unassigned) [Example 22B, (2R)-N-((S or R)-(3-chloro-4-(trifluoro-methoxy)phenyl)(5-chloro-6-(trifluoro-methyl)pyridin-3-yl)methyl)-2-methyl-3-oxopiperazine-1-carboxamide], the IC50 was 2.88 nM.

`C[C@@H]1C(=O)NCCN1C(=O)NC(c1ccc(F)c(Cl)c1)c1cccc(OC(F)F)n1` (single isomer, unassigned) [Example 72A]: the IC50 was determined as 195 nM.

With `C[C@@H]1C(=O)NCCN1C(=O)NC(c1ccc(Cl)c(C(F)(F)F)n1)c1ccc(F)c(Cl)c1F` (single isomer, unassigned) [Example 77A, (2R)-N-((R or S)-(3-chloro-2,4-difluorophenyl)(5-chloro-6-(trifluoromethyl)pyridin-2-yl)methyl)-2-methyl-3-oxopiperazine-1-carboxamide], the 50% inhibitory concentration (IC50) was 4.59 nM.

In the case of `C[C@@H]1C(=O)NCCN1C(=O)NC(c1cnc(C(F)(F)F)nc1)c1ccc(F)c(Cl)c1F` (single isomer, unassigned) [Example 30B, (2R)-N-((S or R)-(3-chloro-2,4-difluoro-phenyl)(2-(trifluoro-methyl)pyrimidin-5-yl)methyl)-2-methyl-3-oxopiperazine-1-carboxamide], the IC50 came to 9.18 nM.

As for `C[C@@H]1C(=O)NCCN1C(=O)NC(c1ccc(Cl)c(C#N)c1)c1ccc(F)c(C(F)(F)F)n1` (single isomer, unassigned) [Example 52A, (2R)-N-((R or S)-(4-chloro-3-cyano-phenyl)(5-fluoro-6-(trifluoromethyl)pyridin-2-yl)methyl)-2-methyl-3-oxopiperazine-1-carboxamide], the half-maximal inhibitory concentration (IC50) was 5.79 nM.

On to `C[C@@H]1C(=O)NCCN1C(=O)NC(c1ccc(OC(F)(F)F)c(Cl)c1)c1cnn(C(F)(F)F)c1` (single isomer, unassigned) [Example 63A, (2R)-N-((R or S)-(3-chloro-4-(trifluoro-methoxy)phenyl)(1-(trifluoromethyl)-1H-pyrazol-4-yl)methyl)-2-methyl-3-oxopiperazine-1-carboxamide], for which the half-maximal inhibitory concentration (IC50) was determined as 1.12 nM.

Turning to `C[C@@H]1C(=O)NCCN1C(=O)NC(c1ccc(F)c(Cl)c1)c1cccc(C(F)(F)F)n1` (single isomer, unassigned) [Example 44], the IC50 was 8.55 nM.

The values above are taken from patent US20240246932A1 (Merck Sharp & Dohme LLC, priority 2021, published 2024).
